Assay results taken from US8324258B2, “F1F0-ATPase inhibitors and related methods” (The Regents of the University of Michigan, priority 2007, dated 2012).

Key:
F1F0-ATPase [1] = biological target: T1, F1F0-ATPase (Bos taurus, UniProt P13621); assay: Inhibition of ATP hydrolysis by the F1F0-ATPase; type: biochemical; details: for ATP Hydrolysis (IC40 μM): IC40: concentration for 40% inhibition
Protocol: (§1) The compounds listed in Table 9 were tested for activity against F1F0-ATPase by measuring ATP synthesis and ATP hydrolysis. In addition, the compounds were assessed for cytotoxicity in Ramos cells Inhibition of ATP synthesis and hydrolysis by the F1F0-ATPase and cytotoxicity in Ramos cells was measured as described in K. M. Johnson et al. Chemistry & Biology 2005, 12, 485-496.

Ramos cells = assay: Cytotoxicity (cell death) in Ramos cells; type: cell-based
Protocol: as §1

F1F0-ATPase [2] = biological target: T1, F1F0-ATPase; assay: Inhibition of ATP synthesis by the F1F0-ATPase; type: biochemical; details: for ATP Synthesis (IC40 μM): IC40: concentration for 40% inhibition
Protocol: as §1

Compound	ATP Hydrolysis (IC40 μM) (F1F0-ATPase [1]) [µM]	EC50 (Ramos cells; Ramos cells) [µM]	ATP Synthesis (IC40 μM) (F1F0-ATPase [2]) [µM]	hydro (relative to Bz-423) (F1F0-ATPase [1]; ATP hydrolysis, multiple of Bz-423) [×Bz-423]	Ramos cell death (relative to Bz-423) (Ramos cells; Ramos cells, multiple of Bz-423) [×Bz-423]	syn (relative to Bz-423) (F1F0-ATPase [2]; ATP synthesis, multiple of Bz-423) [×Bz-423]	EC50 (Ramos cells; Homo sapiens, Ramos) [µM]
CS(=O)(=O)c1cccc(NC(=NC(=O)c2cccc(Cl)c2)NCCc2cnc[nH]2)c1 [III-37, (Z/E)-N-((2-(1H-imidazol-5-yl)ethylamino)(3-(methylsulfonyl)phenylamino)methylene)-3-chlorobenzamide]	>30	> 30	>20				
CS(=O)(=O)c1ccccc1NC(=NC(=O)c1cccc(Cl)c1)NCCc1cnc[nH]1 [III-38, (Z/E)-N-((2-(1H-imidazol-5-yl)ethylamino)(2-(methylsulfonyl)phenylamino)methylene)-3-chlorobenzamide]	>30	> 30	>20				
CN(C)S(=O)(=O)c1ccc(NC(=NC(=O)c2cccc(Cl)c2)NCCc2cnc[nH]2)cc1 [III-39, (Z/E)-N-((2-(1H-imidazol-5-yl)ethylamino)(4-(N,N-dimethylsulfamoyl)phenylamino)methylene)-3-chlorobenzamide]	>30	> 30	>20				
CN(C)S(=O)(=O)c1cccc(NC(=NC(=O)c2cccc(Cl)c2)NCCc2cnc[nH]2)c1 [III-40, (Z/E)-N-((2-(1H-imidazol-5-yl)ethylamino)(3-(N,N-dimethylsulfamoyl)phenylamino)methylene)-3-chlorobenzamide]	>30	> 30	>20				
CCc1ccccc1NC(=NC(=O)c1cccc(Cl)c1)NCCc1c[nH]cn1 [III-41]	>10	> 30	>10				
CCc1cccc(NC(=NC(=O)c2cccc(Cl)c2)NCCc2c[nH]cn2)c1 [III-42]	>20	> 20	<10				
CCc1ccc(NC(=NC(=O)c2cccc(Cl)c2)NCCc2c[nH]cn2)cc1 [III-43, (Z/E)-N-((2-(1H-imidazol-4-yl)ethylamino)(4-ethylphenylamino)methylene)-3-chlorobenzamide]	>20	> 10	>10				
CCc1cccc(CC)c1NC(=NC(=O)c1cccc(Cl)c1)NCCc1c[nH]cn1 [III-44, (Z/E)-N-((2-(1H-imidazol-4-yl)ethylamino)(2,6-diethylphenylamino)methylene)-3-chlorobenzamide]				0.8	2.5	0.7	
N#Cc1cccc(-c2ccc(NC(=NC(=O)c3cccc(Cl)c3)NCCc3c[nH]cn3)cc2)c1 [III-45, (Z/E)-N-((2-(1H-imidazol-4-yl)ethylamino)(3′-cyanobiphenyl-4-ylamino)methylene)-3-chlorobenzamide]	>30	< 10	<10				
O=C(/N=C(\Nc1ccc(-c2ccccc2)cc1)Nc1cccc2[nH]ccc12)c1cccc(Cl)c1 [IV-1, (Z/E)-N-((1H-indol-4-ylamino)(biphenyl-4-ylamino)methylene)-3-chlorobenzamide]	>30		>10				> 10
O=C(/N=C(/NCCn1ccnc1)Nc1ccc(-c2ccccc2)cc1)c1cccc(Cl)c1 [IV-2, (Z/E)-N-((2-(1H-imidazol-1-yl)ethylamino)(biphenyl-4-ylamino)methylene)-3-chlorobenzamide]	>10		<10				> 10
O=C(/N=C(/NCCc1nc[nH]n1)Nc1ccc(-c2ccccc2)cc1)c1cccc(Cl)c1 [IV-3, (Z/E)-N-((2-(1H-1,2,4-triazol-3-yl)ethylamino)(biphenyl-4-ylamino)methylene)-3-chlorobenzamide]	<10		<10				> 10
O=C(/N=C(/NCCc1cn[nH]c1)Nc1ccc(-c2ccccc2)cc1)c1cccc(Cl)c1 [IV-4, (Z/E)-N-((2-(1H-pyrazol-4-yl)ethylamino)(biphenyl-4-ylamino)methylene)-3-chlorobenzamide]	>10		<10				< 10
C[C@@H](Cc1c[nH]cn1)N/C(=N/C(=O)c1cccc(Cl)c1)Nc1ccc(-c2ccccc2)cc1 [IV-5, (S,Z/E)-N-((1-(1H-imidazol-4-yl)propan-2-ylamino)(biphenyl-4-ylamino)methylene)-3-chlorobenzamide]	<10		<10				< 10
C[C@H](Cc1c[nH]cn1)N/C(=N/C(=O)c1cccc(Cl)c1)Nc1ccc(-c2ccccc2)cc1 [IV-6, (R,Z/E)-N-((1-(1H-imidazol-4-yl)propan-2-ylamino)(biphenyl-4-ylamino)methylene)-3-chlorobenzamide]	<10		<10				< 10
O=C(/N=C(/NCCN1CCNC1=O)Nc1ccc(-c2ccccc2)cc1)c1cccc(Cl)c1 [IV-7, (Z/E)-N-((biphenyl-4-ylamino)(2-(2-oxoimidazolidin-1-yl)ethylamino)methylene)-3-chlorobenzamide]	>30		>20				> 30
O=C(/N=C(\Nc1ccc(-c2ccccc2)cc1)Nc1ccc2[nH]ccc2c1)c1cccc(Cl)c1 [IV-8, (Z/E)-N-((1H-indol-5-ylamino)(biphenyl-4-ylamino)methylene)-3-chlorobenzamide]	>30		>10				< 10
O=C(/N=C(/NCc1cccc2[nH]ccc12)Nc1ccc(-c2ccccc2)cc1)c1cccc(Cl)c1 [IV-9]	>30		>20				> 30
Cc1ccc(C(=O)N=C(NCCc2c[nH]cn2)Nc2cccc(-c3ccccc3)c2)cc1 [VI-1, (Z/E)-N-((2-(1H-imidazol-4-yl)ethylamino)(biphenyl-3-ylamino)methylene)-4-methylbenzamide]	>10	> 10	<10				
Cc1cccc(C(=O)N=C(NCCc2c[nH]cn2)Nc2cccc(-c3ccccc3)c2)c1 [VI-2, (Z/E)-N-((2-(1H-imidazol-4-yl)ethylamino)(biphenyl-3-ylamino)methylene)-3-methylbenzamide]	>10	> 10	<10				
O=C(N=C(NCCc1c[nH]cn1)Nc1cccc(-c2ccccc2)c1)c1cccc(C(F)(F)F)c1 [VI-3, (Z/E)-N-((2-(1H-imidazol-4-yl)ethylamino)(biphenyl-3-ylamino)methylene)-3-(trifluoromethyl)benzamide]	>10	< 10	<10				
O=C(N=C(NCCc1c[nH]cn1)Nc1cccc(-c2ccccc2)c1)c1ccc(C(F)(F)F)cc1 [VI-4, (Z/E)-N-((2-(1H-imidazol-4-yl)ethylamino)(biphenyl-3-ylamino)methylene)-4-(trifluoromethyl)benzamide]	>10	> 10	<10				
